22 compounds from patent US6762188B1, “Pharmaceutically active benzoquinazoline compounds” (SmithKline Beecham Corporation, priority 1990, dated 2004) can be followed below.

Structures are written as SMILES.

T1 sequence (P04818 whole entry): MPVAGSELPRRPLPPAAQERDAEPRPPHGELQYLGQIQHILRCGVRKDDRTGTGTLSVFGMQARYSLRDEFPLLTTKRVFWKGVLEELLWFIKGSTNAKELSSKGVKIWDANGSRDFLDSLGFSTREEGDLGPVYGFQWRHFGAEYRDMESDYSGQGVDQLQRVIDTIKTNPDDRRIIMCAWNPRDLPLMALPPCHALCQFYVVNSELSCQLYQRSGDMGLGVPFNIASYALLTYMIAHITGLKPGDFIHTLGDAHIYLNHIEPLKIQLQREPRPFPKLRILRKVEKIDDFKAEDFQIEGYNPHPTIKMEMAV

One experiment has as its target T1, Mammalian Thymidylate Synthase (Homo sapiens, UniProt P04818).
T1 construct: made in house; host or cells: Escherichia coli
As to the kind of experiment: Thymidylate synthase inhibition, tritium release assay. The format is biochemical.
Conditions: not given
In turn, `Nc1nc2ccc3cc(F)ccc3c2c(=O)[nH]1` [3-Amino-8-fluorobenzo(f)quinazolin-1(2H)-one] had an IC50 of 1000 to 300000 nM.

For the compound `Nc1nc2ccc3cc([N+](=O)[O-])c(Br)cc3c2c(=O)[nH]1` [3-Amino-9-bromo-8-nitrobenzo(f)quinazolin-1(2H)-one], the IC50 was in the range of 1000 to 300000 nM.

In turn, `Nc1nc(O)c2c(ccc3ccc(Br)cc32)n1` [3-Amino-9-bromobenzo(f)quinazolin-1(2H)-one] had an IC50 of less than 1000 nM.

As for `Nc1nc2ccc3ccc(Cl)cc3c2c(=O)[nH]1` [3-Amino-9-chlorobenzo(f)quinazolin-1(2H)-one], the IC50 is less than 1000 nM.

Compound `CCOc1ccc2ccc3nc(N)[nH]c(=O)c3c2c1` [3-Amino-9-ethoxybenzo(f)quinazolin-1(2H)-one] showed an IC50 of 1000 to 300000 nM.

In the case of `C#Cc1ccc2ccc3nc(N)[nH]c(=O)c3c2c1` [3-Amino-9-ethynylbenzo(f)quinazolin-1(2H)-one], the IC50 was less than 1000 nM.

In turn, `Nc1nc(O)c2c(ccc3ccc(F)cc32)n1` [3-Amino-9-fluorobenzo(f)quinazolin-1(2H)-one] came in with an IC50 of less than 1000 nM.

`Nc1nc(O)c2c(ccc3ccc(I)cc32)n1` [3-Amino-9-iodobenzo(f)quinazolin-1(2H)-one] had an IC50 of less than 1000 nM.

In turn, `COc1ccc2ccc3nc(N)[nH]c(=O)c3c2c1` [3-Amino-9-methoxybenzo(f)quinazolin-1(2H)-one] registered an IC50 of 1000 to 300000 nM.

As to `CN(C)S(=O)(=O)c1ccc2ccc3nc(N)[nH]c(=O)c3c2c1` [3-Amino-N,N-dimethyl-1,2-dihydro-1-oxobenzo(f)quinazoline-9-sulfonamide], the IC50 fell in the range of 1000 to 300000 nM.

Compound `Nc1nc2ccc3ccc(NS(=O)(=O)c4ccc(C(=O)O)cc4)cc3c2c(=O)[nH]1` [4-(((3-Amino-1,2-dihydro-1-oxobenzo(f)quinazolin-9-yl)amino)sulfonyl)benzoic acid] showed an IC50 of less than 1000 nM.

The experiment is the same for the next values; noted with them: Table A; vs. mammalian enzymes; read-out: I50.
As to `Nc1nc2ccc3cc([N+](=O)[O-])cc([N+](=O)[O-])c3c2c(=O)[nH]1` [3-Amino-8,10-dinitrobenzo(f)quinazolin-1(2H)-one], the IC50 fell in the range of 1000 to 300000 nM.

For the compound `Nc1nc(O)c2c(ccc3cc(Br)c([N+](=O)[O-])cc32)n1` [3-Amino-8-bromo-9-nitrobenzo(f)quinazolin-1(2H)-one], the IC50 was 1000 to 300000 nM.

On to `CC1Cc2nc(N)nc(O)c2-c2ccc(Cl)cc21` (stereo not shown) [3-Amino-8-chloro-5,6-dihydro-6-methylbenzo(f)quinazolin-1(2H)-one], for which the IC50 fell in the range of 1000 to 300000 nM.

Regarding `Nc1nc2c(c(=O)[nH]1)-c1ccc(Cl)cc1CC2` [3-Amino-8-chloro-5,6-dihydrobenzo(f)quinazolin-1(2H)-one], the IC50 fell in the range of 1000 to 300000 nM.

Take `Cc1cc2nc(N)[nH]c(=O)c2c2ccc(Cl)cc12` [3-Amino-8-chloro-6-methylbenzo(f)quinazolin-1(2H)-one]: the IC50 is 1000 to 300000 nM.

As to `Nc1nc2ccc3cc(Cl)ccc3c2c(=O)[nH]1` [3-Amino-8-chlorobenzo(f)quinazolin-1(2H)-one], the IC50 fell in the range of 1000 to 300000 nM.

Take `CCSc1ccc2ccc3nc(N)nc(O)c3c2c1` [3-Amino-9-(ethylthio)benzo(f)quinazolin-1(2H)-one]: the IC50 fell in the range of 1000 to 300000 nM.

Take `CSc1ccc2ccc3nc(N)nc(O)c3c2c1` [3-Amino-9-(methylthio)benzo(f)quinazolin-1(2H)-one]: the IC50 was less than 1000 nM.

In the case of `CC1Cc2nc(N)nc(O)c2-c2cc(Cl)ccc21` (stereo not shown) [3-Amino-9-chloro-5,6-dihydro-6-methylbenzo(f)quinazolin-1(2H)-one], the IC50 is less than 1000 nM.

Regarding `Nc1nc2ccc3cccc([N+](=O)[O-])c3c2c(=O)[nH]1` [3-Amino-10-nitrobenzo(f)quinazolin-1(2H)-one], the IC50 was 1000 to 300000 nM.

Regarding `Cc1nc2c(c(=O)[nH]1)-c1cccc(Cl)c1CC2` [7-Chloro-5,6-dihydro-3-methylbenzo(f)quinazolin-1(2H)-one], the IC50 was in the range of 1000 to 300000 nM.
